Test [1] relates to P. aeruginosa strains with elevated MICs to Polymyxin B. Nature of the test: MIC against strains with elevated MICs to Polymyxin B. Type of test: cell-based, Pseudomonas aeruginosa. The note with it: Table 6D; for MIC P. aeruginosa 066: strain 066, elevated MIC to Polymyxin B; for MIC P. aeruginosa 067: strain 067, elevated MIC to Polymyxin B; for MIC P. aeruginosa 065: strain 065, elevated MIC to Polymyxin B. Put shortly: (§1)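 Reported MIC is the lower of duplicates agreeing within 2-fold, or the mode where compounds were tested repeatedly. Assays with greater than 2-fold duplicate variation were rejected. Colonies grown 18-24 hours on Mueller-Hinton agar were suspended to 0.5 McFarland as inoculum.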

For test [2], the system named is E. coli strains with elevated MICs to Polymyxin B. Briefly: MIC against strains with elevated MICs to Polymyxin B. Type of test: cell-based, Escherichia coli. The note with it: Table 6D; for MIC E. coli 059: strain 059, elevated MIC to Polymyxin B; for MIC E. coli 060: strain 060, elevated MIC to Polymyxin B; for MIC E. coli 061: strain 061, elevated MIC to Polymyxin B; for MIC E. coli 058: strain 058, elevated MIC to Polymyxin B. Summed up:
as §1

The subject of test [3] is K. pneumoniae strains with elevated MICs to Polymyxin B. Nature of the test: MIC against strains with elevated MICs to Polymyxin B. Type of test: cell-based, Klebsiella pneumoniae. The following applies: Table 6D; for MIC K. pneumoniae 062: strain 062, elevated MIC to Polymyxin B; for MIC K. pneumoniae 063: strain 063, elevated MIC to Polymyxin B; for MIC K. pneumoniae 064: strain 064, elevated MIC to Polymyxin B; for MIC K. pneumoniae 655: strain 655, elevated MIC to Polymyxin B. Summed up: as §1

Test [4] has as its system A. baumanii strains with elevated MICs to Polymyxin B. Described as above. Type of test: cell-based, Acinetobacter baumannii. The note with it: Table 6D; for MIC A. baumannii 053: strain 053, elevated MIC to Polymyxin B; for MIC A. baumannii 056: strain 056, elevated MIC to Polymyxin B; for MIC A. baumannii 068: strain 068, elevated MIC to Polymyxin B; for MIC A. baumannii 070: strain 070, elevated MIC to Polymyxin B. Summed up:
as §1

Setting [5] is: absence of a second agent, Table 6B.

Where two headings read alike, the source gives them in different places. Bounds are passed on as bounds.

Consider “3-aminomethyl- undecanoyl polymyxin B nonapeptide [Example D32]”, for which, in test [1], the “MIC P. aeruginosa 066” value was 4 micrograms/mL and the “MIC P. aeruginosa 067” value was determined as 32 micrograms/mL. Further, in the test on E. coli (setting [5]), the “MIC, E. coli ATCC 25922” value amounted to 1 micrograms/mL and the “MIC, E. coli NCTC 13441” value turned out to be 1 micrograms/mL. In test [2], the “MIC E. coli 059” value is reported as 1 micrograms/mL, the “MIC E. coli 060” value was 2 micrograms/mL and the “MIC E. coli 061” value worked out at 8 micrograms/mL. Also, in the test with P. aeruginosa (setting [5]), the “MIC, P. aeruginosa ATCC 27853” value is 0.5 micrograms/mL and the “MIC, P. aeruginosa CCUG 59347” value came to 1 micrograms/mL. In the test with A. baumannii (setting [5]), the “MIC, A. baumannii ATCC BAA-747” value was 2 micrograms/mL and the “MIC, A. baumannii NCTC 13424” value was found to be 1 micrograms/mL. For the same substance, the “MIC, K. pneumoniae ATCC 4352” value with K. pneumoniae (setting [5]) is 1 micrograms/mL. Further, in test [3], the “MIC K. pneumoniae 062” value is recorded as 8 micrograms/mL, the “MIC K. pneumoniae 063” value amounted to 32 micrograms/mL, the “MIC K. pneumoniae 064” value was found to be 2 micrograms/mL and the “MIC K. pneumoniae 655” value amounted to 32 micrograms/mL. Moreover, in test [4], the “MIC A. baumannii 053” value was 32 micrograms/mL, the “MIC A. baumannii 056” value worked out at 8 micrograms/mL, the “MIC A. baumannii 068” value was found to be 4 micrograms/mL and the “MIC A. baumannii 070” value is 8 micrograms/mL.
With “(S)-1-isobutyl piperazine-2- carbonyl-L-Thr- L-Dap-polymyxin B heptapeptide [Example D69]”, in test [1], the “MIC P. aeruginosa 065” value was found to be 16 micrograms/mL, the “MIC P. aeruginosa 066” value is recorded as 32 micrograms/mL and the “MIC P. aeruginosa 067” value is reported as greater than 256 micrograms/mL. Moreover, in the test with E. coli (sole activity, Table 6C), the “MIC, E. coli ATCC 25922” value is 0.25 micrograms/mL and the “MIC, E. coli NCTC 13441” value stood at 0.125 micrograms/mL. In addition, in test [2], the “MIC E. coli 058” value is listed as 8 micrograms/mL, the “MIC E. coli 059” value is 16 micrograms/mL, the “MIC E. coli 060” value turned out to be 8 micrograms/mL and the “MIC E. coli 061” value is on record as 32 micrograms/mL. In the test on P. aeruginosa (sole activity, Table 6C), the “MIC, P. aeruginosa ATCC 27853” value is reported as 0.5 micrograms/mL and the “MIC, P. aeruginosa CCUG 59347” value came out at 0.5 micrograms/mL. In addition, in the test with A. baumannii (sole activity, Table 6C), the “MIC, A. baumannii ATCC BAA-747” value was 0.25 micrograms/mL and the “MIC, A. baumannii NCTC 13424” value is given as 0.5 micrograms/mL. Also, the “MIC, K. pneumoniae ATCC 4352” value in the test with K. pneumoniae (sole activity, Table 6C) came out at 0.125 micrograms/mL. In test [3], the “MIC K. pneumoniae 063” value was 128 micrograms/mL and the “MIC K. pneumoniae 064” value was determined as 32 micrograms/mL. Moreover, in test [4], the “MIC A. baumannii 053” value is listed as greater than 256 micrograms/mL, the “MIC A. baumannii 056” value was found to be 256 micrograms/mL and the “MIC A. baumannii 068” value was 32 micrograms/mL.
Take “trans-4- octylpyrrolidine-3- carbonyl polymyxin B nonapeptide [Example D30]”: in test [1], the “MIC P. aeruginosa 065” value is reported as 0.5 micrograms/mL, the “MIC P. aeruginosa 066” value is 0.5 micrograms/mL and the “MIC P. aeruginosa 067” value came out at 16 micrograms/mL. For the same substance, in the test on E. coli (setting [5]), the “MIC, E. coli ATCC 25922” value is 2 micrograms/mL and the “MIC, E. coli NCTC 13441” value worked out at 2 micrograms/mL. Further, in test [2], the “MIC E. coli 058” value came to 1 micrograms/mL, the “MIC E. coli 059” value was 1 micrograms/mL, the “MIC E. coli 060” value amounted to 1 micrograms/mL and the “MIC E. coli 061” value was 4 micrograms/mL. Also, in the test on P. aeruginosa (setting [5]), the “MIC, P. aeruginosa ATCC 27853” value is given as 1 micrograms/mL and the “MIC, P. aeruginosa CCUG 59347” value is recorded as 1 micrograms/mL. In addition, in the test on A. baumannii (setting [5]), the “MIC, A. baumannii ATCC BAA-747” value came to 1 micrograms/mL and the “MIC, A. baumannii NCTC 13424” value is recorded as 2 micrograms/mL. Further, in the test with K. pneumoniae (setting [5]), the “MIC, K. pneumoniae ATCC 4352” value was 1 micrograms/mL. Also, in test [3], the “MIC K. pneumoniae 063” value is recorded as 4 micrograms/mL, the “MIC K. pneumoniae 064” value was 1 micrograms/mL and the “MIC K. pneumoniae 655” value worked out at 2 micrograms/mL. In addition, in test [4], the “MIC A. baumannii 053” value came to 16 micrograms/mL, the “MIC A. baumannii 056” value is reported as 8 micrograms/mL, the “MIC A. baumannii 068” value was 2 micrograms/mL and the “MIC A. baumannii 070” value was 1 micrograms/mL.
For “(trans-5-(isobutyl- piperidine)-3- carbonyl L-Ser- L-Dap-polymyxin B heptapeptide [Example D79]”, in test [1], the “MIC P. aeruginosa 065” value was found to be 16 micrograms/mL, the “MIC P. aeruginosa 066” value is given as 8 micrograms/mL and the “MIC P. aeruginosa 067” value was greater than 128 micrograms/mL. Further, in the test with E. coli (sole activity, Table 6C), the “MIC, E. coli ATCC 25922” value is 0.125 micrograms/mL and the “MIC, E. coli NCTC 13441” value amounted to 0.125 micrograms/mL. In test [2], the “MIC E. coli 058” value worked out at 8 micrograms/mL, the “MIC E. coli 059” value came out at 8 micrograms/mL, the “MIC E. coli 060” value is reported as 4 micrograms/mL and the “MIC E. coli 061” value is listed as 8 micrograms/mL. Further, in the test with P. aeruginosa (sole activity, Table 6C), the “MIC, P. aeruginosa ATCC 27853” value came to 0.25 micrograms/mL and the “MIC, P. aeruginosa CCUG 59347” value came to 0.25 micrograms/mL. Also, in the test with A. baumannii (sole activity, Table 6C), the “MIC, A. baumannii ATCC BAA-747” value is 0.06 micrograms/mL and the “MIC, A. baumannii NCTC 13424” value came out at 0.125 micrograms/mL. For the same substance, in the test on K. pneumoniae (sole activity, Table 6C), the “MIC, K. pneumoniae ATCC 4352” value came to 0.06 micrograms/mL and the “MIC, K. pneumoniae ATCC BAA-2146” value came out at 0.125 micrograms/mL. Besides, in test [3], the “MIC K. pneumoniae 062” value came to 64 micrograms/mL, the “MIC K. pneumoniae 063” value is greater than 128 micrograms/mL, the “MIC K. pneumoniae 064” value was found to be 8 micrograms/mL and the “MIC K. pneumoniae 655” value was determined as 128 micrograms/mL. In test [4], the “MIC A. baumannii 053” value amounted to 128 micrograms/mL, the “MIC A. baumannii 056” value is listed as 32 micrograms/mL, the “MIC A. baumannii 068” value turned out to be 8 micrograms/mL and the “MIC A. baumannii 070” value was found to be 16 micrograms/mL.
“5- (isobutoxy)piperi- dine-3-carbonyl Polymyxin B nonapeptide [Example D63]”: in test [1], the “MIC P. aeruginosa 065” value is listed as 4 micrograms/mL, the “MIC P. aeruginosa 066” value was determined as 32 micrograms/mL and the “MIC P. aeruginosa 067” value is on record as greater than 256 micrograms/mL. Besides, in the test on E. coli (sole activity, Table 6C), the “MIC, E. coli ATCC 25922” value is 0.06 micrograms/mL and the “MIC, E. coli NCTC 13441” value is given as 0.125 micrograms/mL. In addition, in test [2], the “MIC E. coli 058” value is recorded as 16 micrograms/mL and the “MIC E. coli 061” value amounted to 32 micrograms/mL. Further, in the test on P. aeruginosa (sole activity, Table 6C), the “MIC, P. aeruginosa ATCC 27853” value turned out to be 0.5 micrograms/mL and the “MIC, P. aeruginosa CCUG 59347” value was 0.5 micrograms/mL. For the same substance, in the test on A. baumannii (sole activity, Table 6C), the “MIC, A. baumannii ATCC BAA-747” value is listed as 0.25 micrograms/mL and the “MIC, A. baumannii NCTC 13424” value is listed as 0.25 micrograms/mL. Also, in the test on K. pneumoniae (sole activity, Table 6C), the “MIC, K. pneumoniae ATCC 4352” value turned out to be 0.125 micrograms/mL and the “MIC, K. pneumoniae ATCC BAA-2146” value was 0.125 micrograms/mL. In test [3], the “MIC K. pneumoniae 062” value was 128 micrograms/mL and the “MIC K. pneumoniae 064” value is recorded as 4 micrograms/mL. Also, the “MIC A. baumannii 056” value in test [4] is 128 micrograms/mL.
With “(trans-5-(isobutyl- piperidine)-3- carbonyl L-Thr-L- Dap-polymyxin E heptapeptide [Example D77]”, in test [1], the “MIC P. aeruginosa 065” value is listed as 4 micrograms/mL, the “MIC P. aeruginosa 066” value turned out to be 2 micrograms/mL and the “MIC P. aeruginosa 067” value is 128 micrograms/mL. In addition, in the test on E. coli (sole activity, Table 6C), the “MIC, E. coli ATCC 25922” value was 0.06 micrograms/mL and the “MIC, E. coli NCTC 13441” value amounted to 0.06 micrograms/mL. Moreover, in test [2], the “MIC E. coli 058” value is given as 2 micrograms/mL, the “MIC E. coli 059” value is on record as 4 micrograms/mL, the “MIC E. coli 060” value came out at 1 micrograms/mL and the “MIC E. coli 061” value worked out at 4 micrograms/mL. In the test with P. aeruginosa (sole activity, Table 6C), the “MIC, P. aeruginosa ATCC 27853” value is 0.5 micrograms/mL and the “MIC, P. aeruginosa CCUG 59347” value is 1 micrograms/mL. In the test with A. baumannii (sole activity, Table 6C), the “MIC, A. baumannii ATCC BAA-747” value was 0.06 micrograms/mL and the “MIC, A. baumannii NCTC 13424” value worked out at 0.06 micrograms/mL. Moreover, in the test with K. pneumoniae (sole activity, Table 6C), the “MIC, K. pneumoniae ATCC 4352” value is 0.125 micrograms/mL and the “MIC, K. pneumoniae ATCC BAA-2146” value is reported as 0.125 micrograms/mL. Besides, in test [3], the “MIC K. pneumoniae 062” value is 32 micrograms/mL, the “MIC K. pneumoniae 063” value stood at 16 micrograms/mL, the “MIC K. pneumoniae 064” value was 4 micrograms/mL and the “MIC K. pneumoniae 655” value is 16 micrograms/mL. In addition, in test [4], the “MIC A. baumannii 053” value came to 64 micrograms/mL, the “MIC A. baumannii 068” value worked out at 4 micrograms/mL and the “MIC A. baumannii 070” value is on record as 4 micrograms/mL.

Values taken from patent publication US20210221848A1, “POLYMYXIN DERIVATIVES AND THEIR USE IN COMBINATION THERAPY TOGETHER WITH DIFFERENT ANTIBIOTICS” (priority 2014, published 2021).
